Assay results from PMC11876601 (Molecular Systems Biology, 2025).
One block for each molecule: values may come before it.

Assays:
AAK1 = biological target: T1, AAK1 (Homo sapiens, UniProt Q2M2I8); assay: Kinobeads competition pulldown in AsPC-1 lysate; format: binding
T1 construct: endogenous in cells; host or cells: AsPC-1 lysate
Procedure: (§1) This was followed by incubation with Kinobeads ε (17.5 µl of settled beads) for 30 min at 4 °C to enrich kinases. […] Enriched proteins were reduced with 50 mM DTT in 8 M urea, 40 mM Tris-HCl, pH 7.4 for 30 min at room temperature, and alkylated with 55 mM chloroacetamide. After reducing the urea concentration to 1–2 M, proteins were digested with trypsin at 37 °C for 16 h. Subsequently, eluted peptides were desalted using SepPak tC18 µElution plates (Waters), freeze-dried by vacuum centrifugation, and stored at −20 °C.
(§2) For LC-MS/MS, dried peptides were reconstituted in 0.1% formic acid and analyzed on a Dionex Ultimate3000 nano HPLC (Thermo Scientific) coupled to an Orbitrap Fusion Tribrid mass spectrometer (Thermo Scientific), which was run in data-dependent mode. Peptides were first delivered to a trap column (100 µm × 2 cm, packed in-house with Reprosil-Gold C18 ODS-3 5 µm resin, Dr. Maisch, Ammerbuch) and subsequently washed with solvent A0 (0.1% formic acid in HPLC grade water) at 5 µl/min for 10 min. […] For MS2, up to 12 peptide precursors were isolated (isolation width of 1.2 Th) and subjected to HCD fragmentation using 30% normalized collision energy. […] The duration of dynamic exclusion was set to 30 s.
(§3) Oxidized methionine and N-terminal acetylation were set as variable modification, and cysteine carbamidomethylation was set as fixed modification. Label-free quantification (LFQ) and match-between-runs were enabled. All searches were performed with 1% PSM and protein FDR.
(§4) Proteins were filtered by potential contaminants, reversed hits and proteins identified only by site. Residual binding of proteins was calculated from LFQ intensities as the ratio between drug doses and vehicle. […] Only kinases quantified with at least 4 unique peptides in the vehicle experiment were considered. Potential targets were further curated through manual inspection of dose-dependent reduction in MS/MS and unique peptide counts.

ACVR1 [1] = biological target: T2, ACVR1 (Homo sapiens, UniProt Q04771); assay: Kinobeads competition pulldown in AsPC-1 lysate; format: binding
T2 construct: endogenous in cells; host or cells: AsPC-1 lysate
Procedure: as §1, §2, §3, §4

ACVR2 (Homo sapiens) = biological target: T3, ACVR2 (Homo sapiens); assay: Kinobeads competition pulldown in AsPC-1 lysate; format: binding; conditions: read-out: KDapp
T3 construct: endogenous in cells; host or cells: AsPC-1 lysate
Procedure: as §1, §2, §3, §4

BMP2K = biological target: T4, BMP2K (Homo sapiens, UniProt Q9NSY1); assay: Kinobeads competition pulldown in AsPC-1 lysate; format: binding
T4 construct: endogenous in cells; host or cells: AsPC-1 lysate
Procedure: as §1, §2, §3, §4

CSNK2A2 = biological target: T5, CSNK2A2 (Homo sapiens, UniProt P19784); assay: Kinobeads competition pulldown in AsPC-1 lysate; format: binding
T5 construct: endogenous in cells; host or cells: AsPC-1 lysate
Procedure: as §1, §2, §3, §4

CSNK2A1;CSNK2A3 = conditions: CSNK2A1;CSNK2A3, 5 cell line mix lysate, Kinobeads ε, ref Reinecke et al. (2023), cited from earlier work
PTK2 = system: PTK2; design: method as in Reinecke et al. (2023); conditions: PTK2, 5 cell line mix lysate, Kinobeads ε, ref Reinecke et al. (2023), cited from earlier work
EGFR = biological target: EGFR; design: method as in Reinecke et al. (2023); conditions: 5 cell line mix lysate, Kinobeads ε, ref Reinecke et al. (2023), cited from earlier work
PHKG2 = conditions: PHKG2, 5 cell line mix lysate, Kinobeads ε, ref Reinecke et al. (2023), cited from earlier work
IRAK3 = conditions: IRAK3, 5 cell line mix lysate, Kinobeads ε, ref Reinecke et al. (2023), cited from earlier work
MAP4K3 = system: MAP4K3; design: method as in Reinecke et al. (2023); conditions: MAP4K3, 5 cell line mix lysate, Kinobeads ε, ref Reinecke et al. (2023), cited from earlier work
IGF1R = biological target: IGF1R; design: method as in Reinecke et al. (2023); conditions: 5 cell line mix lysate, Kinobeads ε, ref Reinecke et al. (2023), cited from earlier work
PKN3 = system: PKN3; design: method as in Reinecke et al. (2023); conditions: PKN3, 5 cell line mix lysate, Kinobeads ε, ref Reinecke et al. (2023), cited from earlier work
GSKA = biological target: T6, GSKA (Homo sapiens, UniProt P49840); assay: Kinobeads competition pulldown in AsPC-1 lysate; format: binding; conditions: read-out: KDapp
T6 construct: endogenous in cells; host or cells: AsPC-1 lysate
Procedure: as §1, §2, §3, §4

GSKB = biological target: T7, GSKB (Homo sapiens, UniProt P49841); assay: Kinobeads competition pulldown in AsPC-1 lysate; format: binding; conditions: read-out: KDapp
T7 construct: endogenous in cells; host or cells: AsPC-1 lysate
Procedure: as §1, §2, §3, §4

NTRK1 = system: NTRK1; design: method as in Klaeger et al. (2017); conditions: lysate 4 cell line mix (Colo205, K-562, MV-4-11, and SK-N-BE(2)), Kinobeads y, ref Klaeger et al. (2017); cited from earlier work
MAP3K5 = system: MAP3K5; design: method as in Klaeger et al. (2017); conditions: lysate 4 cell line mix (Colo205, K-562, MV-4-11, and SK-N-BE(2)), Kinobeads y, ref Klaeger et al. (2017); cited from earlier work
GAK = system: GAK; design: method as in Klaeger et al. (2017); conditions: lysate 4 cell line mix (Colo205, K-562, MV-4-11, and SK-N-BE(2)), Kinobeads y, ref Klaeger et al. (2017); cited from earlier work
PRKAA1 = system: PRKAA1; design: method as in Klaeger et al. (2017); conditions: lysate 4 cell line mix (Colo205, K-562, MV-4-11, and SK-N-BE(2)), Kinobeads y, ref Klaeger et al. (2017); cited from earlier work
CAMKK2 = system: CAMKK2; design: method as in Klaeger et al. (2017); conditions: lysate 4 cell line mix (Colo205, K-562, MV-4-11, and SK-N-BE(2)), Kinobeads y, ref Klaeger et al. (2017); cited from earlier work
ACVR1 [2] = system: ACVR1; design: method as in Klaeger et al. (2017); conditions: lysate 4 cell line mix (Colo205, K-562, MV-4-11, and SK-N-BE(2)), Kinobeads y, ref Klaeger et al. (2017); cited from earlier work
RPS6KA3 = system: RPS6KA3; design: method as in Klaeger et al. (2017); conditions: lysate 4 cell line mix (Colo205, K-562, MV-4-11, and SK-N-BE(2)), Kinobeads y, ref Klaeger et al. (2017); cited from earlier work
[3] = Kinobeads residual binding curve

Compound: CNCc1ccc(-c2cc(-c3nc(-c4ccc(S(=O)(=O)C(C)C)cc4)cnc3N)on2)cc1 [Berzosertib]
Kd (AAK1; AsPC-1 lysate, read-out: KDapp): 19.3 nM | EC50 (AAK1; [3]): 36.7 nM | Kd (ACVR1 [1]; AsPC-1 lysate, read-out: KDapp): 0.83 nM | EC50 (ACVR1 [1]; [3]): 2.11 nM | Kd (ACVR2 (Homo sapiens)): < 1 nM | Kd (BMP2K; AsPC-1 lysate, read-out: KDapp): 19.9 nM | EC50 (BMP2K; [3]): 35.7 nM | Kd (CSNK2A2; AsPC-1 lysate, read-out: KDapp): 219 nM | EC50 (CSNK2A2; [3]): 406 nM

Compound: COc1cc(N2CCC(N3CCN(C)CC3)CC2)ccc1Nc1ncc(Cl)c(Nc2ccccc2P(C)(C)=O)n1 [Brigatinib]
EC50 (CSNK2A1;CSNK2A3): 331 nM | pKDapp (CSNK2A1;CSNK2A3): 6.48 | Kd (CSNK2A1;CSNK2A3; read-out: KDapp): 331 nM | EC50 (PTK2): 12.6 nM | pKDapp (PTK2): 8.29 | Kd (PTK2; read-out: KDapp): 5.15 nM | Kd (EGFR; read-out: KDapp): 146 nM | EC50 (EGFR): 184 nM | pKDapp (EGFR): 6.84 | EC50 (PHKG2): 199 nM | pKDapp (PHKG2): 6.71 | Kd (PHKG2; read-out: KDapp): 193 nM | EC50 (IRAK3): 1150 nM | pKDapp (IRAK3): 6.31 | Kd (IRAK3; read-out: KDapp): 494 nM | EC50 (MAP4K3): 1160 nM | pKDapp (MAP4K3): 6.12 | Kd (MAP4K3; read-out: KDapp): 759 nM | Kd (IGF1R; read-out: KDapp): 1320 nM | EC50 (IGF1R): 2000 nM | pKDapp (IGF1R): 5.88 | EC50 (PKN3): 38500 nM | pKDapp (PKN3): 4.41 | Kd (PKN3; read-out: KDapp): 38500 nM

Kd (GSKA): < 10 nM | Kd (GSKB): < 10 nM
Compound: Nc1nn2cc(F)cnc2c1C(=O)Nc1cncc(F)c1N1CCC(C(=O)N2CCN(C3COC3)CC2)CC1 [Gartisertib]

Compound: C[C@]12O[C@H](C[C@]1(O)CO)n1c3ccccc3c3c4c(c5c6ccccc6n2c5c31)CNC4=O [Lestaurtinib]
EC50 (NTRK1): 795 nM | EC50 (MAP3K5): 788 nM | EC50 (GAK): […] | EC50 (PRKAA1): 1320 nM | EC50 (CAMKK2): […] | EC50 (ACVR1 [2]): […] | EC50 (RPS6KA3): 2790 nM
